Measured values as given in patent US20020091086A1, “Peptides that block viral infectivity and methods of use thereof” (priority 1999, published 2002).
Where “and” joins values, the source holds several entries; their conditions need not be identical. Identical values can stand only once. Peptide text beside a SMILES is read from it.

Columns and labels:
[1] = test system: HIV-1 SF-2 virus; assay: electron microscopy of HIV-1 particles from infected HUT78 cells; format: cell-based; details: 1 μM or 10 μM added 3, 5 or 7 days post infection; cells fixed day 14
Method: In this set of experiments, HUT78 cells were infected with HIV-1 SF-2 virus at 300TCID50 for 1 hr at 37° C. Subsequently, the infected cells were washed and pelleted 3 times, as described in Example 2. Thereafter, the cells were resuspended in RPMI culture medium supplemented with 10% FBS, antibiotics (100 u/ml) and polybrene (3.2 μg/ml). GPG-NH2 was then added into the cell cultures 3, 5 or 7 days post infection at concentration of 1 μM or 10 μM. A control sample was administered 0.5μM Ritonavir (a protease inhibitor).
The cells were cultured until day 14, at which point, the cells were fixed in 2.5% glutaraldehyde by conventional means. The fixed cells were then postfixed in 1% OSO4 and were dehydrated, embedded with epoxy resins, and the blocks were allowed to polymerize. Epon sections of virus infected cells were made approximately 60-80 nm thin in order to accommodate the width of the nucleocapsid. The sections were mounted to grids stained with 1.0% uranyl acetate and were analyzed in a Zeiss CEM 902 microscope at an accelerating voltage of 80 kV. The microscope was equipped with a spectrometer to improve image quality and a liquid nitrogen cooling trap was used to reduce beam damage. The grids having sections of control and GPG-NH2 incubated cells were examined in several blind studies.

[2] = biological target: T1, recombinant p24 (Human immunodeficiency virus type 1 group M subtype B, UniProt P04591); assay: dialysis-based binding assay with 14C-GPG-NH2, p24; set-up: species or system HIV-1
T1 construct: purchased AIDS program, NCIB (gift, not bought)
Method: A dialysis-based binding assay was conducted using a dialysis membrane with a pore size of less than 10 kD. (Slide-A-Lyzer, Pierce). Fifty microliters of a 10 μM stock of the recombinant proteins p24 and gp120 (gifts from the AIDS program, NCIB) and BSA (Sigma) were introduced into separate dialysis membranes and the proteins were dialyzed at 4° C. for 2 days against a 500 ml solution composed of 150 mM NaCl and 50 mM Tris-HCl, pH 7.4 buffer and 27.5 μM of ^14C-GPG-NH2 (Amersham Ltd. UK). Subsequently, ten or five microliter aliquots of the dialyzed p24, gp120, and BSA were removed and mixed with 3 ml of ReadySafe (Beckman) in a scintillation vial. The C^14 was then detected by scintillation counting.

[3] = test system: HIV-1 isolate p7227 (high AZT); assay: resistant HIV-1 isolates in PBMC, p24 ELISA; format: cell-based; details: GPG 100 μM, 14 days post infection
[4] = storage stability of capsules; format: physicochemical; details: Five-hundred milligram capsules; stored at 4° C.
Description: Compositions of the peptide agents suitable for gastrointestinal administration include, but not limited to, pharmaceutically acceptable powders, pills or liquids for ingestion and suppositories for rectal administration. Due to the most common routes of HIV infection and the ease of use, gastrointestinal administration, particularly oral, is the preferred embodiment of the present invention. […] As previously shown in other virus-host systems, specific antiviral activity of small peptides can be detected in serum after oral administration. (Miller et al., Appl. Microbiol., 16:1489 (1968)). Since small peptides apparently evade degradation by the patient's digestive system, they are ideal for oral administration.

[5] = test system: influenza; assay: inhibition of influenza virus; format: cell-based
[6] = test system: various cell lines; assay: ratio of CC50/IC50 in vitro; format: cell-based
Method: The in vitro 50% cytotoxic concentrations (CC50) of various cell lines was also assessed. Accordingly, different concentrations of GPG-NH2, up to 40 mM, was supplemented into the medium culture of T-cell lines HUT78, H9, CEM-SS, MT-2 and (non) induced ACH-2, as well as, the macrophage derived cell lines […], THP-1 and (non) induced U-1 cells. After 3 days of incubation, the number of cells were counted.

[7] = single intravenous dose toxicity in adult mice; format: in vivo; details: intravenous injection in the tail vein, up to 1 g per kilo bodyweight
Method: In this example, the results from several in vivo toxicology studies on small peptides administered in large doses to rodents are presented. In a first experiment, a large single dose of small peptide was delivered to mice and the toxic effects were analyzed. […] In a second experiment, several doses of varying amounts of a small peptide were delivered to mice for almost three weeks. Groups of mice (five mice in each group) were given intraperitoneal injections of GPG-NH2 (0.01, 0.1 and 1 g per kilo bodyweight and day, respectively) starting at an age of 6 days. Daily injections were continued for 18 days. […] In a similar experiment, a four week toxicology study of GPG-NH2 was performed by Scantox A/S in Denmark. GPG-NH2 was given orally to rats at doses up to 1 g per kilo bodyweight per day for twenty eight days.

[8] = test system: gp160

NCC(=O)N1CCC[C@H]1C(=O)NCC(N)=O [GPG-NH2, glycyl-prolyl-glycine amide] (H-Gly-Pro-Gly-NH2)
viral nucleocapsid formation, electron microscopy [1]: interrupted proper viral nucleocapsid formation | radioactive GPG-NH2 associated with p24 ([2]; dialysis 2 days at 4° C. against 27.5 μM 14C-GPG-NH2, buffer 1.816): 13.712 μCi/ml | times buffer, p24 ([2]; dialysis against 27.5 μM 14C-GPG-NH2): 7.5 times buffer and 7.551 times buffer | % reduction [3]: (100%) | HIV-1 p24 [3]: <500 pg/mL | stability on storage [4]: ≥ 12 months | inhibition of influenza virus [5]: failed inhibit either influenza or polio viruses | ratio of CC50/IC50 in vitro [6]: > 10^4 | toxic effects [7]: no apparent toxic effects | N- or O-linked glycosylation of the virus protein [8]: no effect
